One assay deals with human BACE1 (Homo sapiens, UniProt P56817). Description: Fluorescent kinetic assay, inhibition of BACE1 (WABC-6 peptide substrate).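 Further: fluorescence monitored at 320 nm excitation and 420 nm emission every 40 s over 30 min, with the substrate cleavage rate taken from the linear slope.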 It counts as biochemical.
Another assay has as its target T1, human BACE2 (Homo sapiens, UniProt Q9Y5Z0).
T1 sequence (Q9Y5Z0 63-518): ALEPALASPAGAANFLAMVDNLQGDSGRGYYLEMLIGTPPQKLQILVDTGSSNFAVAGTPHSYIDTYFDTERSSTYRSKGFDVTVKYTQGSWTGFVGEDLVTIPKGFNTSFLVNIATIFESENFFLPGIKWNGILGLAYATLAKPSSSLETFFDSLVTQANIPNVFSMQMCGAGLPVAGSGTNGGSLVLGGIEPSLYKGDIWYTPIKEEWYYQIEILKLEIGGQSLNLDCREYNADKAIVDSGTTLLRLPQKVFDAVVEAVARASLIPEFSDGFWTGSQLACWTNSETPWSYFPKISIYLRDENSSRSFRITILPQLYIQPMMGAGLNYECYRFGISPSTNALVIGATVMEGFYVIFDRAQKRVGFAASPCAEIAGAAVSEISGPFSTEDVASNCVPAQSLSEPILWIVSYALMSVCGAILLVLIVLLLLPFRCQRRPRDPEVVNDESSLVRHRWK
Kind of assay: Fluorescent Kinetic Assay for Human Recombinant BACE 2 (selectivity BACE1/BACE2).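 Further: cleavage rate from the linear slope of fluorescence (excitation 320 nm, emission 420 nm) recorded every 40 s over 30 min at room temperature, sodium acetate buffer with 0.05% CHAPS.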 The following applies: selectivity BACE1 over BACE2; 1.5 nM human BACE2, 25 μM substrate, pH 4.5. It counts as biochemical.

Where [1] appears, read: 10 nM enzyme, 25 μM substrate WABC-6, pH 4.5, room temperature, read-out: IC50 (μM) BACE1.

By IC50 is commonly meant the concentration needed to halve the response being measured.

Where two headings read alike, the source gives them in different places.

human BACE1, sequence (P56817 46-501): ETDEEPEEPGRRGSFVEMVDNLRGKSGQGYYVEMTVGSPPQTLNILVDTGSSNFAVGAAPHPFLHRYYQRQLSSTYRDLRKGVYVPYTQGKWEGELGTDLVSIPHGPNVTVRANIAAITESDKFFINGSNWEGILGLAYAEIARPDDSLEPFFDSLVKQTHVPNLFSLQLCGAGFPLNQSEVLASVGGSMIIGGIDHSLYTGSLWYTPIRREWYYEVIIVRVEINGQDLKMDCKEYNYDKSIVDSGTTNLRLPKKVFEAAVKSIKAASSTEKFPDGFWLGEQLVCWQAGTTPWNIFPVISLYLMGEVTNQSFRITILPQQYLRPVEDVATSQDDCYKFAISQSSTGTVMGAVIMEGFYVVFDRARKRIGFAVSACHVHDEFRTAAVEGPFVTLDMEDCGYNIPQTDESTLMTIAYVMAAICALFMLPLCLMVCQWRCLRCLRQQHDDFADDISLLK

`COc1ccc(C2(c3ccc(C#N)c(-c4cccnc4)c3)N=C(N)N(C)C2=O)cc1C` (stereo not drawn) [Example 5, 4-[2-amino-4-(4-methoxy-3-methylphenyl)-1-methyl-5-oxo-4,5-dihydro-1H-imidazol-4-yl]-2-pyridin-3-ylbenzonitrile] returned an IC50 at human BACE1 of 0.11 to 1 µM.

As to `CCN1C(=O)C(c2cccc(-c3cccnc3)c2)(c2ccc(OC)c(C)c2)N=C1N` (stereo not drawn) [Example 8], the IC50 on human BACE1 (setting [1]) is 0.01 to 0.1 µM. At human BACE2, the BACE1/BACE2 selectivity entry is reported as “II (II = 10-100-fold selectivity)”. As to `COc1ccc(C2(c3cccc(-c4cnccn4)c3)N=C(N)N(C)C2=O)cc1C` (stereo not drawn) [Example 9], the IC50 at human BACE1 (setting [1]) is 0.01 to 0.1 µM. Further, on human BACE2, the BACE1/BACE2 selectivity result is given as “II (II = 10-100-fold selectivity)”.

Consider `Cc1cc(C2(c3cccc(-c4cccnc4)c3)N=C(N)N(C)C2=O)ccc1O` (stereo not drawn) [Example 10], for which the IC50 at human BACE1 (setting [1]) is 0.01 to 0.1 µM. In addition, at human BACE2, the BACE1/BACE2 selectivity result is given as “II (II = 10-100-fold selectivity)”. With `CCCOc1cc(C2(c3cccc(-c4cccnc4)c3)N=C(N)N(C)C2=O)ccc1OC` (stereo not drawn) [Example 16], the IC50 at human BACE1 (setting [1]) lay within 0.01 to 0.1 µM. Also, the BACE1/BACE2 selectivity result on human BACE2 was “III (III = <10-fold selectivity)”. Turning to `CCCCOc1cc(C2(c3cccc(-c4cccnc4)c3)N=C(N)N(C)C2=O)ccc1OC` (stereo not drawn) [Example 17], the IC50 on human BACE1 (setting [1]) lay in the range of 0.01 to 0.1 µM. Besides, the BACE1/BACE2 selectivity entry on human BACE2 was “III (III = <10-fold selectivity)”.

At human BACE1, `COc1ccc(C2(c3cccc(-c4cccnc4)c3)N=C(N)N(C)C2=O)cc1OC(C)C` (stereo not drawn) [Example 18] displayed an IC50 of 0.01 to 0.1 µM. Also, the BACE1/BACE2 selectivity result at human BACE2 is “II (II = 10-100-fold selectivity)”. Regarding `COc1ccc(C2(c3cccc(-c4cccnc4)c3)N=C(N)N(C)C2=O)cc1C#N` (stereo not drawn) [Example 20], the IC50 on human BACE1 is 0.11 to 1 µM. For the same compound, the BACE1/BACE2 selectivity result at human BACE2 is “III (III = <10-fold selectivity)”. At human BACE1, `COc1ccc(C2(c3cccc(-c4cccnc4)c3)N=C(N)N(C)C2=O)cc1F` (stereo not drawn) [Example 21] came in with an IC50 of 0.01 to 0.1 µM. `CCOc1cc(C2(c3cccc(-c4cccnc4)c3)N=C(N)N(C)C2=O)ccc1OC` (stereo not drawn) [Example 24] yielded an IC50 against human BACE1 of 0.01 to 0.1 µM. Besides, the BACE1/BACE2 selectivity result on human BACE2 is given as “II (II = 10-100-fold selectivity)”.

On to `CN1C(=O)C(c2ccc(OC(F)(F)F)cc2)(c2cccc(-c3ncccn3)c2)N=C1N` (stereo not drawn) [Example 37, 2-Amino-3-methyl-5-(3-pyrimidin-2-ylphenyl)-5-[4-(trifluoromethoxy)phenyl]-3,5-dihydro-4H-imidazol-4-one], for which, at human BACE1 (setting [1]), the IC50 lay in the range of 0.01 to 0.1 µM. Moreover, the BACE1/BACE2 selectivity result on human BACE2 was “III (III = <10-fold selectivity)”. On to `CN1C(=O)C(c2ccc(OC(F)(F)F)c(F)c2)(c2ccc(F)c(-c3cncc(F)c3)c2)N=C1N` (stereo not drawn) [Example 41, 2-Amino-5-[4-fluoro-3-(5-fluoropyridin-3-yl)phenyl]-5-[3-fluoro-4-(trifluoromethoxy)phenyl]-3-methyl-3,5-dihydro-imidazol-4-one], for which the half-maximal inhibitory concentration (IC50) on human BACE1 (setting [1]) was in the range of 0.11 to 1 µM. For the same compound, on human BACE2, the BACE1/BACE2 selectivity result is reported as “II (II = 10-100-fold selectivity)”. As for `CN1C(=O)C(c2ccc(OC(F)(F)F)c(F)c2)(c2ccc(F)c(-c3cccnc3F)c2)N=C1N` (stereo not drawn) [Example 43], the IC50 on human BACE1 (setting [1]) lay within 0.01 to 0.1 µM. In addition, the BACE1/BACE2 selectivity entry on human BACE2 is reported as “II (II = 10-100-fold selectivity)”. Consider `CN1C(=O)C(c2ccc(OC(F)(F)F)cc2)(c2cccc(-c3cncnc3)c2F)N=C1N` (stereo not drawn) [Example 48], for which the IC50 at human BACE1 (setting [1]) was greater than 1 µM. In addition, the BACE1/BACE2 selectivity result on human BACE2 is given as “II (II = 10-100-fold selectivity)”. On to `COc1ncccc1-c1cccc(C2(c3ccc(OC(F)(F)F)cc3)N=C(N)N(C)C2=O)c1` (stereo not drawn) [Example 52], for which the 50% inhibitory concentration (IC50) at human BACE1 (setting [1]) was 0.11 to 1 µM. On human BACE2, the BACE1/BACE2 selectivity entry was “II (II = 10-100-fold selectivity)”.

As to `COc1ccc(C2(c3ccc(F)c(-c4ccc(F)nc4)c3)N=C(N)N(C)C2=O)cc1C(F)(F)F` (stereo not drawn) [Example 57], the IC50 at human BACE1 (setting [1]) fell in the range of 0.01 to 0.1 µM. In addition, at human BACE2, the BACE1/BACE2 selectivity result is “II (II = 10-100-fold selectivity)”. As for `COc1ccc(C2(c3ccc(F)c(-c4cccnc4F)c3)N=C(N)N(C)C2=O)cc1C(F)(F)F` (stereo not drawn) [Example 58], the IC50 at human BACE1 (setting [1]) is 0.01 to 0.1 µM. Also, the BACE1/BACE2 selectivity entry at human BACE2 is on record as “II (II = 10-100-fold selectivity)”. Regarding `COc1ccc(C2(c3cccc(-c4cccnc4F)c3)N=C(N)N(C)C2=O)cc1C` (stereo not drawn) [Example 59], the IC50 at human BACE1 (setting [1]) fell in the range of 0.01 to 0.1 µM. Also, on human BACE2, the BACE1/BACE2 selectivity result is on record as “II (II = 10-100-fold selectivity)”. Consider `COc1ccc(C2(c3ccc(F)c(-c4cncc(F)c4)c3)N=C(N)N(C)C2=O)cc1` (stereo not drawn) [Example 60], for which the IC50 at human BACE1 (setting [1]) lay within 0.01 to 0.1 µM. Moreover, the BACE1/BACE2 selectivity entry on human BACE2 is given as “II (II = 10-100-fold selectivity)”.

On to `COc1ccc(C2(c3ccc(F)c(-c4cncc(F)c4)c3)N=C(N)N(C)C2=O)cc1C` (stereo not drawn) [Example 61], for which the IC50 on human BACE1 (setting [1]) was in the range of 0.01 to 0.1 µM. Moreover, the BACE1/BACE2 selectivity result on human BACE2 is on record as “II (II = 10-100-fold selectivity)”. The like results for `COc1ccc(C2(c3ccc(F)c(-c4cccnc4F)c3)N=C(N)N(C)C2=O)cc1` (stereo not drawn) [Example 62] were, in that order, 0.01 to 0.1 µM and “II (II = 10-100-fold selectivity)”. In the case of `COc1ccc(C2(c3ccc(F)c(-c4cncnc4)c3)N=C(N)N(C)C2=O)cc1` (stereo not drawn) [Example 63], the IC50 on human BACE1 (setting [1]) was in the range of 0.01 to 0.1 µM. The BACE1/BACE2 selectivity entry at human BACE2 was “I (I = >100-fold selectivity)”.

On to `CN1C(=O)C(c2ccc(OC(F)(F)F)cc2)(c2cccc(-c3ccc(F)nc3)c2)N=C1N` (stereo not drawn) [Example 65], for which the IC50 on human BACE1 (setting [1]) lay in the range of 0.11 to 1 µM. Moreover, the BACE1/BACE2 selectivity entry on human BACE2 is recorded as “II (II = 10-100-fold selectivity)”. For `CCOc1ccc(C2(c3cccc(-c4cncc(OC)c4)c3)N=C(N)N(C)C2=O)cc1OCC` (stereo not drawn) [Example 67], the IC50 on human BACE1 (setting [1]) was in the range of 0.01 to 0.1 µM. Further, the BACE1/BACE2 selectivity result on human BACE2 is “III (III = <10-fold selectivity)”. Consider `CCOc1ccc(C2(c3cccc(-c4cccnc4OC)c3)N=C(N)N(C)C2=O)cc1OCC` (stereo not drawn) [Example 68], for which the IC50 at human BACE1 (setting [1]) lay within 0.11 to 1 µM. Moreover, the BACE1/BACE2 selectivity result on human BACE2 is recorded as “III (III = <10-fold selectivity)”. In the case of `CCOc1ccc(C2(c3cccc(-c4ccc(F)nc4)c3)N=C(N)N(C)C2=O)cc1OCC` (stereo not drawn) [Example 69], at human BACE1 (setting [1]), the IC50 fell in the range of 0.01 to 0.1 µM. For the same compound, at human BACE2, the BACE1/BACE2 selectivity result is recorded as “III (III = <10-fold selectivity)”. With `CCOc1ccc(C2(c3cccc(-c4cccnc4F)c3)N=C(N)N(C)C2=O)cc1OCC` (stereo not drawn) [Example 70], the IC50 on human BACE1 (setting [1]) fell in the range of 0.01 to 0.1 µM. For the same compound, at human BACE2, the BACE1/BACE2 selectivity entry is “II (II = 10-100-fold selectivity)”.

As to `COc1cncc(-c2cc(C3(c4ccc(OC(F)(F)F)cc4)N=C(N)N(C)C3=O)ccc2F)c1` (stereo not drawn) [Example 71], at human BACE1 (setting [1]), the IC50 was in the range of 0.01 to 0.1 µM. Also, the BACE1/BACE2 selectivity entry on human BACE2 was “III (III = <10-fold selectivity)”. The like results for `COc1ncccc1-c1cc(C2(c3ccc(OC(F)(F)F)cc3)N=C(N)N(C)C2=O)ccc1F` (stereo not drawn) [Example 72] were, in that order, 0.11 to 1 µM and “II (II = 10-100-fold selectivity)”. In the case of `CN1C(=O)C(c2ccc(OC(F)(F)F)cc2)(c2ccc(F)c(-c3ccc(F)nc3)c2)N=C1N` (stereo not drawn) [Example 73], at human BACE1 (setting [1]), the IC50 lay within 0.11 to 1 µM. In addition, the BACE1/BACE2 selectivity result at human BACE2 is recorded as “II (II = 10-100-fold selectivity)”.

Compound `COc1ccc([C@@]2(c3cccc(-c4cccnc4F)c3)N=C(N)N(C)C2=O)cc1C` [Example 102A, (5R)-2-Amino-5-[3-(2-fluoropyridin-3-yl)phenyl]-5-(4-methoxy-3-methylphenyl]-3-methyl-3,5-dihydro-4H-imidazol-4-one] registered an IC50 at human BACE1 of 0.11 to 1 µM. On the same count and under the same terms, for `COc1ccc([C@]2(c3cccc(-c4cccnc4F)c3)N=C(N)N(C)C2=O)cc1C` [Example 102B, (5S)-2-Amino-5-[3-(2-fluoropyridin-3-yl)phenyl]-5-(4-methoxy-3-methylphenyl]-3-methyl-3,5-dihydro-4H-imidazol-4-one] the value was 0.01 to 0.1 µM.

The record behind these values is patent US7700602B2, “Amino-5,5-diphenylimidazolone derivatives for the inhibition of β-secretase” (Wyeth LLC, priority 2004, dated 2010).
